Tested on: MV-4-11 cell line
Experiment: MV-4-11 cell line xenografted mouse model, tumor volume / tumor growth inhibition
Format: in vivo
Details: nude mice xenografted with MV-4-11; Compound A 3 mg/kg/day orally once a day, days 1 to 21
Procedure: In a mouse model xenografted with the MV-4-11 cell line, comparison or combination efficacy tests were conducted of the FLT3 inhibitor 5-Chloro-N-(3-cyclopropyl-5-(((3R,5S)-3,5-dimethylpiperazine-1-yl)methyl)phenyl)-4-(6-methyl-1H-indole-3-yl)pyrimidin-2-amine (hereinafter compound A); 4-amino-1-[(2R,3S,4S,5R)-3,4-dihydroxy-5-(hydroxymethyl)oxolane-2-yl]pyrimidin-2-one (hereafter cytarabine); and ((8S,10S)-8-acetyl-10-[(2S,4S,5S,6S)-4-amino-5-hydroxy-6-methyl-oxane-2-yl]oxy-6,8,11-trihydroxy-1-methoxy-9,10-dihydro-7H-tetracene-5,12-dione (hereafter daunorubicin).
The MV-4-11 cell line was purchased from the American Type Culture Collection (ATCC). To construct a xenografted mouse model using this MV-4-11 cell line, 5-week-old female CAnN·Cg-Foxn1nu/Crljbgi mice (hereinafter, Nude mice) were purchased from Charles River Laboratories Japan, Inc.
The MV-4-11 cell line was inoculated subcutaneously in the flank with 5×10^6 cells/[…]/mouse and allowed to grow. Mice having a tumor volume of 100 to 300 mm^3 (length×width^2×0.5) were selected 1 day before administration, the average tumor volume in each group was divided into 4 groups (5 animals/group) so that the average tumor volume was almost the same, and each dose was administered for a total period of 21 days. […]

Question: With `Cc1ccc2c(-c3nc(Nc4cc(CN5C[C@@H](C)N[C@@H](C)C5)cc(C5CC5)c4)ncc3Cl)c[nH]c2c1` [compound A, 5-Chloro-N-(3-cyclopropyl-5-(((3R,5S)-3,5-dimethylpiperazine-1-yl)methyl)phenyl)-4-(6-methyl-1H-indole-3-yl)pyrimidin-2-amine] as the compound, how does the “Tumor growth inhibition (TGI)” value read?
Answer: 34.7%

Source: US12350265B2, “Pharmaceutical composition for treating acute myeloid leukemia, containing FLT3 inhibitor and chemotherapeutic agents” (Hanmi Pharm. Co., Ltd., priority 2019, dated 2025)
